Measured values taken from BindingDB's records for doi:10.1021/jm0503087 (Conforma Therapeutics, 2006).
pEC50: −log10 of the molar value.

Biological target: Heat shock protein HSP 90-beta (Homo sapiens, UniProt P08238)
Assay: Her-2 Degradation Assay
Details: pH 7.2; 37 °C
Experimental: A fluorescence histogram was generated, and the mean fluorescence intensity (MFI) of each sample was determined using Cellquest software.

Heat shock protein HSP 90-beta, sequence (P08238 whole entry): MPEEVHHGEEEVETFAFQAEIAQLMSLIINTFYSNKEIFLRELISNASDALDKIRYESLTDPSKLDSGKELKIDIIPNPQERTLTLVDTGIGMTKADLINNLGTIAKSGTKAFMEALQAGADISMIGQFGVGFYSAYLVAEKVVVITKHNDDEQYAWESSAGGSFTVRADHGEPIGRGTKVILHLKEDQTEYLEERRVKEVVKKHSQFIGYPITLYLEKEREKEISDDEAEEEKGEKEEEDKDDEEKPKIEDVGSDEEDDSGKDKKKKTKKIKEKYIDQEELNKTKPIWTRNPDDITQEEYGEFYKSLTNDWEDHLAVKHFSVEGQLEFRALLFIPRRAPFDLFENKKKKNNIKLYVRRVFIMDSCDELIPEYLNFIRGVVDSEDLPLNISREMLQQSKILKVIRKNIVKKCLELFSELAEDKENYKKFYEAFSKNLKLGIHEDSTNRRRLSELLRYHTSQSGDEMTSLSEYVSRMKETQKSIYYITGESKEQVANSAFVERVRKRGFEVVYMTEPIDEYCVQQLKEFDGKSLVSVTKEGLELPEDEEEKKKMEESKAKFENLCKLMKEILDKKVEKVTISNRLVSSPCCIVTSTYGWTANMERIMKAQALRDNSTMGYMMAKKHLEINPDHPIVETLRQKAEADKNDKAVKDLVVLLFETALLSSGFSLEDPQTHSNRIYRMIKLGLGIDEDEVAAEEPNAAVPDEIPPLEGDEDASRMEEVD

SMILES | pEC50
C#CCCCn1c(Sc2cc(OC)ccc2I)nc2c(N)nc(F)nc21 [2-fluoro-8-[(2-iodo-5-methoxyphenyl)sulfanyl]-9-(pent-4-yn-1-yl)-9H-purin-6-amine] | 6.44
COc1ccc(I)c(Sc2nc3c(N)ncnc3n2CCC=C(C)C)c1 [8-[(2-iodo-5-methoxyphenyl)sulfanyl]-9-(4-methylpent-3-en-1-yl)-9H-purin-6-amine] | 6.43
CCCCn1c(Sc2cc(OC)ccc2OC)nc2c(N)ncnc21 [9-butyl-8-[(2,5-dimethoxyphenyl)sulfanyl]-9H-purin-6-amine] | 5.46
CCCCn1c(Cc2cc(OC)ccc2I)nc2c(N)ncnc21 [9-butyl-8-[(2-iodo-5-methoxyphenyl)methyl]-9H-purin-6-amine] | 5.30
CCCCn1c(Cc2cc(OC)ccc2Br)nc2c(N)ncnc21 [8-[(2-bromo-5-methoxyphenyl)methyl]-9-butyl-9H-purin-6-amine] | 5.10
CCCCn1c(Cc2cc(OC)ccc2Cl)nc2c(N)ncnc21 [9-butyl-8-[(2-chloro-5-methoxyphenyl)methyl]-9H-purin-6-amine] | 4.70
CCC(C)NCCCn1c(Sc2cc(OC)ccc2I)nc2c(N)ncnc21 (configuration not stated) [9-[3-(butan-2-ylamino)propyl]-8-[(2-iodo-5-methoxyphenyl)sulfanyl]-9H-purin-6-amine] | 6.68
COc1ccc(I)c(Sc2nc3c(N)ncnc3n2CCCNC(C)(C)C)c1 | 6.85
COc1ccc(I)c(Sc2nc3c(N)ncnc3n2CCNCC(C)C)c1 [8-[(2-iodo-5-methoxyphenyl)sulfanyl]-9-{2-[(2-methylpropyl)amino]ethyl}-9H-purin-6-amine] | 7.00
CCCCn1c(Cc2cc(OC)ccc2OC)nc2c(N)ncnc21 [PU7] | 4.92
COc1ccc(I)c(Sc2nc3c(N)ncnc3n2CCCNC(C)C)c1 [8-[(2-iodo-5-methoxyphenyl)sulfanyl]-9-[3-(propan-2-ylamino)propyl]-9H-purin-6-amine] | 6.74
CCC(CC)NCCCn1c(Sc2cc(OC)ccc2I)nc2c(N)ncnc21 [8-[(2-iodo-5-methoxyphenyl)sulfanyl]-9-[3-(pentan-3-ylamino)propyl]-9H-purin-6-amine] | 6.68
